These results are taken from patent US20230357708A1, “BI[…] PARA-HYDROXYBENZOIC ACID FROM METHANOL AND METHANE” (The Board of Trustees of the Leland Stanford Junior …, priority 2020, published 2023).

The test system of series [1] is M. buryatense 5GB1 (5G) strain. Description: 4HBA toxicity test, streaks on plates with horizontal 4HBA-gradient. Format: cell-based, Methylotuvimicrobium buryatense. The conditions noted are these: background-strain streaks, 4HBA-gradient 0-10 mM, pH 8.9. The procedure: (§1) Fast growers were mutants with changed 4HBA-operon sequence. Fast-growing mutant #1 produced some 4HBA. […] The toxic conditions in turn favoured re-arrangement and/or point mutations of the plasmid. Streaks of the transconjugants on solid medium without methanol, grew comparatively well The solid medium was supplemented with nutrient broth, NMS2.1kan and MeOH. Toxicity tests with varying 4HBA concentrations was performed.

For series [2], the system named is M. alcahphilum 20Z strain. Described as above. The note with it: background-strain streaks, 4HBA-gradient 0-10 mM, pH 8.9. In kind it is cell-based, Methylomicrobium alcaliphilum. The procedure: as §1

As to `O=C(O)c1ccc(O)cc1` [4HBA, para-hydroxybenzoic acid], in series [1], the “effect of 4HBA on growth” value is listed as “significant inhibitory effect” and the “effect of 4HBA on growth compared with the M. alcahphilum 20Z strain” value is reported as “more severely affected”. In addition, the “effect of 4HBA on growth” value in series [2] was “significant inhibitory effect”.
